Legend:
miR-17 = test: microRNA polysome shift assay (miPSA), kidney target engagement; format: in vivo, mouse; design: miPSA Score Wild Type Mice / miPSA Score PKD Mice / miPSA displacement score (mean): scale not given here; details: for miPSA Kidney AUC (8 hours to 7 days) / Potency Kidney D7: wild-type mice, single s.c. dose 30 mg/kg; for Potency Kidney D7: day 7
Procedure: (§1) In vivo potency was evaluated using the microRNA polysome shift assay (miPSA). This assay was used to determine the extent to which compounds directly engage the miR-17 target in the kidney in normal and PKD mice. The miPSA relies on the principle that active miRNAs bind to their mRNA targets in translationally active high molecular weight (HMW) polysomes, whereas the inhibited miRNAs reside in the low MW (LMW) polysomes. Treatment with anti-miR results in a shift of the microRNA from HMW polysomes to LMW polysomes. Thus, the miPSA provides a direct measurement of microRNA target engagement by a complementary anti-miR (Androsavich et al., Nucleic Acids Research, 2015, 44: e13).
The miPSA was used to assess the potency of each compound, measured by the displacement score, in wild type and JCK mice. Tissue accumulation of anti-miR-17 compound was measured by extraction of compound using liquid-liquid extraction (LLE) and/or solid-phase extraction (SPE), followed by analysis of the identity and concentration of compound using ion-pairing-reversed-phase high performance liquid chromatography coupled with time-of-flight mass spectrometry (IP—RP-HPLC-TOF).
Wild type mice were administered a single dose of 3 mg/kg for the miPSA analysis, and a single dose of 30 mg/kg for the tissue accumulation analysis. JCK mice were administered a single dose of 30 mg/kg for both the miPSA and tissue accumulation analyses. Kidney tissue was collected seven days following the administration of anti-miR-17 compound. […] A higher kidney-to-liver ratio is generally preferred for a disease where the primary site of action is the kidney.
as §1, with “The” for “In vivo potency was evaluated using the”, “(miPSA),” for “(miPSA). This assay”, “identify” for “determine the extent to which”, “compounds that” for “compounds”, “engage” for “engage the”, “miR-17” for “miR-17 target”
For this experiment, the PKD model selected was the JCK model, a mouse model of slowly progressing renal cystic disease associated with the same gene that causes human nephronophthisis type 9. Renal cysts in this mouse develop in multiple regions of the nephron.
C57BL6 mice were treated with a single, subcutaneous dose of 0.3, 3, and 30 mg/kg of RG4326 or tool anti-miR-17 (described in Example 1). JCK mice were treated with a single, subcutaneous dose of 3, 30, and 100 mg/kg of RG4326 or tool anti-miR-17. PBS treatment was used as an additional control. At seven days post-treatment, mice were sacrificed, and kidney tissue was isolated for the miPSA. […] The displacement scores following treatment with RG4326 were greater than the displacement scores following treatment with the tool anti-miR-17 compound. The data for wild-type mice and JCK mice are also shown in FIG. 3A and FIG. 3B, respectively.
Pharmacokinetic behavior was assessed by administering a single subcutaneous 30 mg/kg dose of RG4326 or tool anti-miR-17 compound to wild-type mice. At one hour, four hours, eight hours, one day, seven days, 14 days, 28 days and 56 days following the single injection, mice were sacrificed and the mean concentration of anti-miR compound in kidney and liver tissue was measured (ug/g) as described above. The area-under-curve (AUC) was calculated for kidney and liver tissue using the formula ug*h/g, where ug is the amount of oligonucleotide in the tissue, h is the timepoint of tissue collection in hours, and g is the weight of the tissue. The ratio of kidney AUC to liver AUC was determined. Kidney tissue was also processed to the miPSA, to determine target engagement for each compound in this study. […]

miR-17 targets [1] = test: miR-17 PD Signature Score in IMCD3 cells (18 genes targeted by miR-17); format: cell-based, mouse; details: 24-hour transfection, relative to mock-transfection
Procedure: To test the ability of RG4326 to inhibit miR-17 regulation of endogenous targets, miR-17 target gene de-repression was assessed in vitro in several kidney cell types from normal and PKD mouse kidneys. Mouse kidney collecting duct cells (IMCD3) were treated with 0.3 nM, 1.2 nM, 4.7 nM, 18.8 nM, 75 nM, and 300 nM of RG4326 or a control oligonucleotide, RG5124. Additional control groups included untreated cells and mock-transfected cells (cell treated with transfection reagent only). After a 24-hour transfection period, cells were collected and RNA was extracted. The mRNA levels of 18 genes targeted by miR-17 were measured, and averaged to provide a pharmacodynamic signature score (PD Signature Score), represented as Log2 fold-change (Log2FC) relative to mock-transfection.

miR-17 targets [2] = test: De-repression of miR-17 targets in kidney cell types (PD Signature Score); format: cell-based, mouse
Procedure: The ability of RG4326 to de-repress miR-17 targets was also evaluated in additional kidney cell types, derived from the kidneys of both normal and PKD mice. Cells were treated with 30 nM of RG4326 or control oligonucleotide RG5124. After a 24-hour transfection period, cells were collected and RNA was extracted. The mRNA levels of 18 genes targeted by miR-17 were measured, and averaged to provide a pharmacodynamic signature score (PD Signature Score), represented as Log2 fold-change (Log2FC) relative to mock-transfection. […] “P<0.05” indicates a p-value of less than 0.05, as calculated by one-way ANOVA. “NS” indicates a change that is not statistically significant.

[3] = JCK mice, single subcutaneous 3 mg/kg, kidney, seven days
[4] = JCK mice, single subcutaneous 30 mg/kg, kidney, seven days
[5] = JCK mice, single subcutaneous 100 mg/kg, kidney, seven days
[6] = Normal (C57BL6) mice, single subcutaneous 0.3 mg/kg, kidney, seven days
[7] = Normal (C57BL6) mice, single subcutaneous 3 mg/kg, kidney, seven days
[8] = Normal (C57BL6) mice, single subcutaneous 30 mg/kg, kidney, seven days
[9] = DBA-PKD, Collecting Ducts, PKD kidney
[10] = DBA-WT, Collecting Ducts, Normal kidney
[11] = IMCD3, Collecting Ducts, Normal kidney
[12] = LTL-PKD, Proximal Tubules, PKD kidney
[13] = LTL-WT, Proximal Tubules, Normal kidney
[14] = M1, Collecting Ducts, Normal kidney
[15] = MDCT, Distal Tubules, Normal kidney

5′-CTGCACTGTAAGCACTTTG-3′ (all phosphorothioate, sugars by position and methylation of C not given here; DNA, 2'-MOE and S-cEt sugars) [Tool anti-miR-17, reference compound]
miPSA displacement score (mean) (miR-17; [3]): 0.97
miPSA displacement score (mean) (miR-17; [4]): 1.67
miPSA displacement score (mean) (miR-17; [5]): 2.08
miPSA displacement score (mean) (miR-17; [6]): 1.51
miPSA displacement score (mean) (miR-17; [7]): 2.05
miPSA displacement score (mean) (miR-17; [8]): 2.77
miPSA Kidney AUC (8 hours to 7 days) (miR-17): 296 Log2FC * h
Potency Kidney D7 (miR-17): 0.047 Log2FC * g/ug

COC1C(OP(=O)(S)OC[C@H]2O[C@@H](n3cnc4c(N)ncnc43)C(F)C2OP(=O)(S)OC[C@H]2O[C@@H](n3ccc(N)nc3=O)C(F)C2OP(=O)(S)OC[C@H]2O[C@@H](n3ccc(=O)[nH]c3=O)C(F)C2OP(=O)(S)OC[C@H]2O[C@@H](n3ccc(=O)[nH]c3=O)C(OC)C2OP(=O)(S)OC[C@]23O[C@@H](n4ccc(=O)[nH]c4=O)C(O[C@H]2C)C3OP(=O)(S)OC[C@]23O[C@@H](n4cnc5c(=O)[nH]c(N)nc54)C(O[C@H]2C)C3O)[C@@H](COP(=O)(S)OC2C3O[C@@H](C)[C@]2(COP(=O)(S)OC2C4O[C@@H](C)[C@]2(CO)O[C@H]4n2cnc4c(N)ncnc42)O[C@H]3n2cnc3c(=O)[nH]c(N)nc32)O[C@H]1n1ccc(N)nc1=O (stereo in doubt) [RG4326, ASGSCMAFCFUFUMUSGS]
miR-17 PD Signature Score, Mean Log2FC (miR-17 targets [1]; 0.3 nM): −0.075 Log2FC
miR-17 PD Signature Score, Mean Log2FC (miR-17 targets [1]; 1.2 nM): −0.067 Log2FC
miR-17 PD Signature Score, Mean Log2FC (miR-17 targets [1]; 4.7 nM): 0.027 Log2FC
miR-17 PD Signature Score, Mean Log2FC (miR-17 targets [1]; 18.8 nM): 0.272 Log2FC
miR-17 PD Signature Score, Mean Log2FC (miR-17 targets [1]; 75 nM): 0.369 Log2FC
miR-17 PD Signature Score, Mean Log2FC (miR-17 targets [1]; 300 nM): 0.373 Log2FC
PD-Signature Score (Log2FC @ 30 nM) (miR-17 targets [2]; [9]): 0.52 ± 0.06; p < 0.05 Log2FC
PD-Signature Score (Log2FC @ 30 nM) (miR-17 targets [2]; [10]): 0.40 ± 0.09; p < 0.05 Log2FC
PD-Signature Score (Log2FC @ 30 nM) (miR-17 targets [2]; [11]): 0.57 ± 0.06; p < 0.05 Log2FC
PD-Signature Score (Log2FC @ 30 nM) (miR-17 targets [2]; [12]): 0.39 ± 0.01; p < 0.05 Log2FC
PD-Signature Score (Log2FC @ 30 nM) (miR-17 targets [2]; [13]): 0.35 ± 0.02; p < 0.05 Log2FC
PD-Signature Score (Log2FC @ 30 nM) (miR-17 targets [2]; [14]): 0.18 ± 0.18; p < 0.05 Log2FC
PD-Signature Score (Log2FC @ 30 nM) (miR-17 targets [2]; [15]): 0.10 ± 0.01; p < 0.05 Log2FC
miPSA Score PKD Mice (miR-17; JCK mice, single dose 30 mg/kg, kidney, seven days): 2.65
miPSA displacement score (mean) (miR-17; [3]): 1.63
miPSA displacement score (mean) (miR-17; [4]): 2.58
miPSA displacement score (mean) (miR-17; [5]): 2.73
miPSA displacement score (mean) (miR-17; [6]): 2.29
miPSA displacement score (mean) (miR-17; [7]): 2.91
miPSA displacement score (mean) (miR-17; [8]): 3.19
miPSA Score Wild Type Mice (miR-17; wild type mice, single dose 3 mg/kg, kidney, seven days): 2.63
miPSA Kidney AUC (8 hours to 7 days) (miR-17): 463 Log2FC * h
Potency Kidney D7 (miR-17): 0.351 Log2FC * g/ug

ASCSAMAFUFGFCMASCS [RG5124, reference compound]
miR-17 PD Signature Score, Mean Log2FC (miR-17 targets [1]; 0.3 nM): −0.083 Log2FC
miR-17 PD Signature Score, Mean Log2FC (miR-17 targets [1]; 1.2 nM): −0.103 Log2FC
miR-17 PD Signature Score, Mean Log2FC (miR-17 targets [1]; 4.7 nM): −0.097 Log2FC
miR-17 PD Signature Score, Mean Log2FC (miR-17 targets [1]; 18.8 nM): −0.108 Log2FC
miR-17 PD Signature Score, Mean Log2FC (miR-17 targets [1]; 75 nM): −0.124 Log2FC
miR-17 PD Signature Score, Mean Log2FC (miR-17 targets [1]; 300 nM): −0.065 Log2FC
PD-Signature Score (Log2FC @ 30 nM) (miR-17 targets [2]; [9]): −0.07 ± 0.02; ns Log2FC
PD-Signature Score (Log2FC @ 30 nM) (miR-17 targets [2]; [10]): 0.10 ± 0.05; ns Log2FC
PD-Signature Score (Log2FC @ 30 nM) (miR-17 targets [2]; [11]): −0.03 ± 0.05; ns Log2FC
PD-Signature Score (Log2FC @ 30 nM) (miR-17 targets [2]; [12]): −0.03 ± 0.04; ns Log2FC
PD-Signature Score (Log2FC @ 30 nM) (miR-17 targets [2]; [13]): −0.04 ± 0.02; ns Log2FC
PD-Signature Score (Log2FC @ 30 nM) (miR-17 targets [2]; [14]): −0.08 ± 0.02; ns Log2FC
PD-Signature Score (Log2FC @ 30 nM) (miR-17 targets [2]; [15]): 0.03 ± 0.01; ns Log2FC

— patent US20250333745A1, “METHODS AND COMPOSITIONS FOR TREATMENT OF POLYCYSTIC KIDNEY DISEASE” (Regulus Therapeutics Inc., priority 2016, published 2025)
